What was measured:
flkGST = target: T1, flkGST (Homo sapiens, UniProt P35968); assay: bio flkGST assay; format: biochemical
T1 construct: GST

PDGFR-β = target: T2, PDGFR-β (Homo sapiens, UniProt P09619); assay: Biochemical PDGFR assay (ELISA, PDGFR-β expressing NIH 3T3 cell lysate); details: read-out: bio PDGF IC50
T2 construct: host or cells: NIH 3T3
Source text: This assay measures the in vitro kinase activity of PDGFR using ELISA.
Unless otherwise noted, the preparation of working solution-of the following reagents is the same as that for the Biochemical EGFR assay, above. • 1. […] 28D4C10 monoclonal anti-PDGFR antibody (Biochemistry Lab, SUGEN, Inc.). • 3. PBS (Dulbecco's Phosphate-Buffered Saline, Gibco Catalog No. 450-1300EB) • 4. TBST Buffer. • 5. Blocking Buffer. • 6. PDGFR-β expressing NIH 3T3 cell lysate (Screening Lab, SUGEN, Inc.). • 7. TBS Buffer. • 8. TBS+10% DMSO. • 9. […] MnCl2. • 11. Kinase buffer phosphorylation mix.
• 12. NUNC 96-well V bottom polypropylene plates (Applied Scientific Cat. No. AS-72092). • 13. Ethylenediaminetetraacetic acid (EDTA). • 14. Rabbit polyclonal anti-phosphotyrosine serum (Biochemistry Lab, SUGEN, Inc.). • 15. Goat anti-rabbit IgG peroxidase conjugate (Biosource Cat. No. ALI0404). • 16. 2,2′-azino-bis(3-ethylbenzthiazoline-6-sulfonic acid) (ABTS, Sigma Cat. No. A-1888). • 17. Hydrogen peroxide 30% solution (Fisher Cat. No. H325). • 18. ABTS/H2O2. • 19. 0.2 M HCl.
Procedure • 1. Coat Corning 96 well ELISA plates with 0.5 μg 28D4C10 in 100 μl PBS per well, store overnight at 4° C. • 2. Remove unbound 28D4C10 from wells by inverting plate to remove liquid. Wash 1× with dH2O. Pat the plate on a paper towel to remove excess liquid. • 3. Add 150 μl of Blocking Buffer to each well. Incubate for 30 min. at room temperature with shaking. • 4. Wash plate 3× with deionized water, then once with TBST. Pat plate on a paper towel to remove excess liquid and bubbles. • 5. Dilute lysate in HNTG (10 μg lysate/100 μl HNTG) • 6. Add 100 μl of diluted lysate to each well. Shake at room temperature for 60 min. • 7. Wash plates as described in 4, above. • 8. Add 80 μl working kinase buffer mix to ELISA plate containing captured PDGFR. • 9. Dilute test compound 1:10 in TBS in 96-well polypropylene plates (i.e., 10 μl compound+90 μl TBS). • 10. Add 10 μl diluted test compound to ELISA plate. […] Incubate for 30 minutes while shaking at room temperature. • 12. Add 10 μl ATP directly to all wells except negative control well (final well volume should be approximately 100 μl with 20 μM ATP in each well.) Incubate 30 minutes while shaking. • 13. After 30 minutes, stop reaction by adding 10 μl of 200 mM EDTA (pH 8.0) to each well. • 14. Wash 4× with deionized water, twice with TBST. • 15. Add 100 μl anti-phosphotyrosine (1:3000 dilution in TBST) per well. Incubate 30-45 min. at room temperature, with shaking. • 16. Wash as described in 4, above. • 17. Add 100 μl Biosource Goat anti-rabbit IgG peroxidase conjugate (1:2000 dilution in TBST) to each well. Incubate 30 min. at room temperature, with shaking. • 18. Wash as described in 4, above. • 19. Add 100 μl of ABTS/H2O2 solution to each well. • 20. Incubate 10 to 30 minutes with shaking. Remove any bubbles. • 21. If necessary stop reaction with the addition of 100 μl 0.2 M HCl per well. • 22. Read assay on Dynatech MR7000 ELISA reader: test filter: 410 nM, reference filter: 630 nM.

[1] = target: T3, chimeric receptor containing the EGFR extracellular domain and intracellular HER2 kinase domain (Homo sapiens, UniProt P04626); assay: EGF Receptor-HER2 chimeric receptor assay in whole cells (ELISA); format: cell-based; details: read-out: HER-2 kinase IC50
T3 construct: fused on or other part: EGFR ectodomain + HER2 intracellular part, ATP-site indolinones: HER2's kinase
T3 sequence (P04626 720-1255 limits assumed, change not shown): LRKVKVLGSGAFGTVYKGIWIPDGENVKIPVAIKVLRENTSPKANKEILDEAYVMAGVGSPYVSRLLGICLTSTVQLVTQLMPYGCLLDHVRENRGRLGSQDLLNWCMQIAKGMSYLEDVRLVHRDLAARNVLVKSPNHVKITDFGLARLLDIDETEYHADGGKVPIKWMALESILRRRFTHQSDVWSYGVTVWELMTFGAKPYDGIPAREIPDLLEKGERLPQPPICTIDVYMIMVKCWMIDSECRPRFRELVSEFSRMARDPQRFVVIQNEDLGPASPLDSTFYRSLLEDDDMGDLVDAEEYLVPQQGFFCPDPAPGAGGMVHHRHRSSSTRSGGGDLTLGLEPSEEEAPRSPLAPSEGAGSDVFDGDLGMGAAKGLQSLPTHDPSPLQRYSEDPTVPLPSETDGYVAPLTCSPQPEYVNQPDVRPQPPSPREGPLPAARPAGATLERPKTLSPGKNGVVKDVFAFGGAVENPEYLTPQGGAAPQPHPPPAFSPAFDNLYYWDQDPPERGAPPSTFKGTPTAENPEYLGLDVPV
Description: EGF Receptor-HER2 Chimeric Receptor Assay In Whole Cells.
HER2 kinase activity in whole EGFR-NIH3T3 cells are measured as described below:
• a. […] 05-101 (UBI) (a monoclonal antibody recognizing an EGFR extracellular domain). • c. Anti-phosphotyrosine antibody (anti-Ptyr) (polyclonal) (see, Fendley, et al., supra). • d. Detection antibody: Goat anti-rabbit IgG horseradish peroxidase conjugate, TAGO, Inc., Burlingame, Calif. • e. TBST buffer:
• h. Stock reagents of:
Pre-coat ELISA Plate • 1. […] Coated plates are good for up to 10 days when stored at 4° C. • 2. On day of use, remove coating buffer and replace with 100 μl blocking buffer (5% Carnation Instant Non-Fat Dry Milk in PBS). Incubate the plate, shaking, at room temperature (about 23° C. to 25° C.) for 30 minutes. Just prior to use, remove blocking buffer and wash plate 4 times with TBST buffer.
Seeding Cells • 1. An NIH3T3 cell line overexpressing a chimeric receptor containing the EGFR extracellular domain and intracellular HER2 kinase domain can be used for this assay. • 2. Choose dishes having 80-90% confluence for the experiment. Trypsinize cells and stop reaction by adding 10% fetal bovine serum. Suspend cells in DMEM medium (10% CS DMEM medium) and centrifuge once at 1500 rpm, at room temperature for 5 minutes. • 3. Resuspend cells in seeding medium (DMEM, 0.5% bovine serum), and count the cells using trypan blue. Viability above 90% is acceptable. Seed cells in DMEM medium (0.5% bovine serum) at a density of 10,000 cells per well, 100 μl per well, in a 96 well microtiter plate. Incubate seeded cells in 5% CO2. at 37° C. for about 40 hours.
Assay Procedures • 1. Check seeded cells for contamination using an inverted microscope. Dilute drug stock (10 mg/ml in DMSO) 1:10 in DMEM medium, then transfer 5 μl to a […] well for a final drug dilution of 1:200 and a final DMSO concentration of 1%. Control wells receive DMSO alone. Incubate in 5% CO2 at 37° C. for two hours. • 2. Prepare EGF ligand: dilute stock EGF in DMEM so that upon transfer of 10 μl dilute EGF (1:12 dilution), 100 nM final concentration is attained. • 3. Prepare fresh HNTG* sufficient for 100 μl per well, and place on ice.
• 4. After 120 minutes incubation with drug, add prepared […] ligand to cells, 10 μl per well, to a final concentration of 100 nM. Control wells receive DMEM alone. Incubate with shaking, at room temperature, for 5 minutes. • 5. Remove drug, EGF, and DMEM. Wash cells twice with PBS. Transfer HNTG* to cells, 100 μl per well. Place on ice for 5 minutes. Meanwhile, remove blocking buffer from other ELISA plate and wash with TBST as described above. • 6. With a pipette tip securely fitted to a micropipettor, scrape cells from plate and homogenize cell material by repeatedly aspirating and dispensing the HNTG* lysis buffer. Transfer lysate to a coated, blocked, and washed ELISA plate. Incubate shaking at room temperature for one hour. • 7. Remove lysate and wash 4 times with TBST. Transfer freshly diluted anti-Ptyr antibody to ELISA plate at 100 μl per well. Incubate shaking at room temperature for 30 minutes in the presence of the anti-Ptyr antiserum (1:3000 dilution in TBST). • 8. Remove the anti-Ptyr antibody and wash 4 times with TBST. Transfer the freshly diluted TAGO anti-rabbit IgG antibody to the ELISA plate at 100 μl per well. Incubate shaking at room temperature for 30 minutes (anti-rabbit IgG antibody: 1:3000 dilution in TBST). • 9. Remove TAGO detection antibody and wash 4 times with TBST. Transfer freshly prepared ABTS/H2O2 solution to ELISA plate, 100 μl per well. Incubate shaking at room temperature for 20 minutes. (ABTS/H2O2 solution: 1.0 μl 30% H2O2 in 10 ml ABTS stock). • 10. Stop reaction by adding 50 μl 5N H2SO4 (optional), and determine O.D. at 410 nm. • 11. The maximal phosphotyrosine signal is determined by subtracting the value of the negative controls from the positive controls. […]

EGFR = EGFR (Homo sapiens, UniProt P00533); assay: Biochemical EGFR assay (ELISA, A431 cell lysate); design: A431 cell lysate (Screening Lab, SUGEN, Inc.); host or cells: A431; details: read-out: bio EGFr IC50
Sequence of EGFR (P00533 25-1210): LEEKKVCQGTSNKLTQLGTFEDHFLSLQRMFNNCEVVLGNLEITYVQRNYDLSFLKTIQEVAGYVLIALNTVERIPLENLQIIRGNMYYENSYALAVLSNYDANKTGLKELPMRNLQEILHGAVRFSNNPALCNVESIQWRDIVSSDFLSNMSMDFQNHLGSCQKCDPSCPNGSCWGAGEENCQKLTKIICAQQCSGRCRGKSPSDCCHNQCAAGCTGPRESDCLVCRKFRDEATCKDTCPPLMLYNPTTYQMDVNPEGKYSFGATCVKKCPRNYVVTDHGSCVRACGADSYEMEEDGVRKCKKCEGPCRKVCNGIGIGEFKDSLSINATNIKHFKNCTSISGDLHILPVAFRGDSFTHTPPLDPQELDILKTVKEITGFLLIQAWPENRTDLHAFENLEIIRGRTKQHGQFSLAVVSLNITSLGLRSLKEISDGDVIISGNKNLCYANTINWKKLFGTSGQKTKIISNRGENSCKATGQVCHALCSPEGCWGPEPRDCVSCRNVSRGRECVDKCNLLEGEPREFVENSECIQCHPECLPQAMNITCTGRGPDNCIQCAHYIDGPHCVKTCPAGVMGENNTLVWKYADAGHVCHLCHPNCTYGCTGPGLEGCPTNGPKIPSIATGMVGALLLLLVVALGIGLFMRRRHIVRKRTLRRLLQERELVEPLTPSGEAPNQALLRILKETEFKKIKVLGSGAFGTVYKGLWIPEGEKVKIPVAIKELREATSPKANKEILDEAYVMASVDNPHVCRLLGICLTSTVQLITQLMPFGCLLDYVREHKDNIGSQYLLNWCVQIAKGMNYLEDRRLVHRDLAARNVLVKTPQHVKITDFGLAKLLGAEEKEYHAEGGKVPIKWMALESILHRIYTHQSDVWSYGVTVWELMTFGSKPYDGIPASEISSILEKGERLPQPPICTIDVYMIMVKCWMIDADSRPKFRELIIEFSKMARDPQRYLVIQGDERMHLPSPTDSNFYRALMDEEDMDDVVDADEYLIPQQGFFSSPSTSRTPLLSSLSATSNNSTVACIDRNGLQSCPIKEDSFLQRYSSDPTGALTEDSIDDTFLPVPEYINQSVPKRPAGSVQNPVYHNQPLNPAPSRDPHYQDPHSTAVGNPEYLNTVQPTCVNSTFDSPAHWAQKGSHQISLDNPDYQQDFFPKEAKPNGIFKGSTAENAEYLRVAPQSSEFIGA
Description: This assay measures the in vitro kinase activity of EGFR using ELISA.
Materials and Reagents • 1. […] SUMO1 monoclonal anti-EGFR antibody (Biochemistry Lab, SUGEN, Inc.). • 3. PBS (Dulbecco's Phosphate-Buffered Saline, Gibco Catalog No. 450-1300EB). • 4. TBST Buffer
• 6. A431 cell lysate (Screening Lab, SUGEN, Inc.) • 7. TBS Buffer:
Prepare a 1.0 mM solution in dH2O. This reagent should be made up immediately prior to use and kept on ice. • 10. MnCl2.
Prepare a 1.0 M stock solution in dH2O. • 11. ATP/MnCl2 phosphorylation mix
This reagent should be prepared immediately before use and kept on ice. • 12. NUNC 96-well V bottom polypropylene plates (Applied Scientific Cat. No. AS-72092). • 13. Ethylenediaminetetraacetic acid (EDTA)
Prepare 200 mM working solution in dH2O. Adjust to pH 8.0 with 10 N NaOH. • 14. Rabbit polyclonal anti-phosphotyrosine serum (Biochemistry Lab, SUGEN, Inc.) • 15. Goat anti-rabbit IgG peroxidase conjugate (Biosource Cat. No. ALI0404) • 16. ABTS (2,2′-azino-bis(3-ethylbenzthiazoline-6-sulfonic acid), Sigma Cat. No. A-1888).
Mix first two ingredients in about 900 ml dH2O, adjust pH to 4.0 with phosphoric acid. Add ABTS, cover, let sit about 0.5 hr., filter. The solution should be kept in the dark at 4° C. until ready to use. • 17. Hydrogen peroxide 30% solution (Fisher Cat. No. H325) • 18. ABTS/H2O2 • Mix 15 ml ABTS solution and 2.0 μl H2O2. Prepare 5 minutes before use. • 19. 0.2 M HCl
Procedure • 1. Coat Corning 96 well ELISA plates with 0.5 μg SUMO1 in 100 μl PBS per well, store overnight at 4° C. • 2. Remove unbound SUMO1 from wells by inverting plate to remove liquid., Wash 1× with dH2O. Pat the plate on a paper towel to remove excess liquid. • 3. Add 150 μl of Blocking Buffer to each well. Incubate for 30 min. at room temperature with shaking. • 4. Wash plate 3× with deionized water, then once with TBST. Pat plate on a paper towel to remove excess liquid and bubbles. • 5. Dilute lysate in PBS (7 μg lysate/100 μl PBS). • 6. Add 100 μl of diluted lysate to each well. Shake at room temperature for 60 min. • 7. Wash plates as described in 4, above. • 8. Add 120 μl TBS to ELISA plate containing captured EGFR. • 9. Dilute test compound 1:10 in TBS in 96-well polypropylene plates (i.e. 10 μl compound+90 μl TBS). • 10. Add 13.5 μl diluted test compound to ELISA plate. […] Incubate for 30 minutes while shaking at room temperature. • 12. […] After 5 minutes, stop reaction by adding 16.5 μl of 200 mM EDTA (pH 8.0) to each well, shaking continuously. After the EDTA has been added, shake for 1 min. • 14. Wash 4× with deionized water, twice with TBST. • 15. Add 100 μl anti-phosphotyrosine (1:3000 dilution in TBST) per well. Incubate 30-45 min. at room temperature, with shaking. • 16. Wash as described in 4, above. • 17. Add 100 μl Biosource Goat anti-rabbit IgG peroxidase conjugate (1:2000 dilution in TBST) to each well. Incubate 30 min. at room temperature, with shaking. • 18. Wash as described in 4, above. • 19. Add 100 μl of ABTS/H2O2 solution to each well. • 20. Incubate 5 to 10 minutes with shaking. Remove any bubbles. • 21. If necessary stop reaction with the addition of 100 μl 1 0.2 M HCl per well. • 22. Read assay on Dynatech MR7000 ELISA reader. Test Filter: 410 nM Reference Filter: 630 Nm.

T2 sequence (P09619 33-1106): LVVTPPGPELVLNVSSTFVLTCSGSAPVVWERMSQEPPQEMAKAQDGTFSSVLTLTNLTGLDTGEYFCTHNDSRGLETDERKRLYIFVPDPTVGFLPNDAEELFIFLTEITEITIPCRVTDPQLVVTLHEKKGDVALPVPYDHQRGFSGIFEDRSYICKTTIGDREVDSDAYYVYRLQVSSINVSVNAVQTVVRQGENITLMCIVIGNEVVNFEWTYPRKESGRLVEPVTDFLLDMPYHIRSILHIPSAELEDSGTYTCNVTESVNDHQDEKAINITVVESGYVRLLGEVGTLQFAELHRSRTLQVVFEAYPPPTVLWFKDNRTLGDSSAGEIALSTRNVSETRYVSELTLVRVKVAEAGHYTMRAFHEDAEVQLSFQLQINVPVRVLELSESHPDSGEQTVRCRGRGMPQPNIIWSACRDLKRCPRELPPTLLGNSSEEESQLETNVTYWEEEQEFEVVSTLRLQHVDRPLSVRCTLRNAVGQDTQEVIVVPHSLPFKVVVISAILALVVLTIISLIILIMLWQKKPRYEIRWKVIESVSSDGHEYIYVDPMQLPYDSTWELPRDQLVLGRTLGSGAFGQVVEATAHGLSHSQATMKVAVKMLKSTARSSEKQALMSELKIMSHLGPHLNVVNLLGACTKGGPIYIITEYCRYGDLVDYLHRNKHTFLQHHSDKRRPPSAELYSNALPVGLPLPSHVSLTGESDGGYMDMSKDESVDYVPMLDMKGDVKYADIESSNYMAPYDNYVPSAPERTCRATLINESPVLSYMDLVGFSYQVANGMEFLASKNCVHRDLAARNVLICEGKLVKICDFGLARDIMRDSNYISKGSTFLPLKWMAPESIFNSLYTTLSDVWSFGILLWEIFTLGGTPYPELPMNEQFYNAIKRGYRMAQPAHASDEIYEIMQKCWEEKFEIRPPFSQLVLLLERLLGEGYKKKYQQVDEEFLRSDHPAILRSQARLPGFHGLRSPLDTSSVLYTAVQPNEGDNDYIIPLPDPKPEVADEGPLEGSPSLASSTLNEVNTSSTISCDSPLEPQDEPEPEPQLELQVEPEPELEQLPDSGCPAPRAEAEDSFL
T1 sequence (P35968 786-1356 limits assumed): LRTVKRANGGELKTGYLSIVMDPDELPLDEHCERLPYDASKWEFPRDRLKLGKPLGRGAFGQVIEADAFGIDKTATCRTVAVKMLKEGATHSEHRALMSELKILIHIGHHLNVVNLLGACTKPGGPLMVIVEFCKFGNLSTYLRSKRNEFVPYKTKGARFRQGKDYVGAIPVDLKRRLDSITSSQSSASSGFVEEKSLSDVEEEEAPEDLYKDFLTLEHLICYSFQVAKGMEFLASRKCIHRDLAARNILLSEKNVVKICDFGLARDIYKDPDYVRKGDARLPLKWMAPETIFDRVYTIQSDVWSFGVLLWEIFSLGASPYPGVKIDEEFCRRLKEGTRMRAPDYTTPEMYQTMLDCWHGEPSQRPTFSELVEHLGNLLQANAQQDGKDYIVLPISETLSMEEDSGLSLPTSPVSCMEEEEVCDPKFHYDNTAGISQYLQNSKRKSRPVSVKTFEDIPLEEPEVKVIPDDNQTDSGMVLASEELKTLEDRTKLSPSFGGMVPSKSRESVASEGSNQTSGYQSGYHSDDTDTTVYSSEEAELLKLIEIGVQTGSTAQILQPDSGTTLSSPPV

Row | IC50 (flkGST) [µM] | IC50 (PDGFR-β) [µM] | IC50 [1] [µM] | IC50 (EGFR) [µM] | Compound
1 | 14.8 | 63.3 | – | – | CCOC(=O)c1c(C)[nH]c(/C=C2\C(=O)Nc3ccc(S(=O)(=O)NC)cc32)c1CCCN1CCCC1 [Example 126, 2-Methyl-5-(5-methylsulfamoyl-2-oxo-1,2-dihydroindol-3-ylidenemethyl)-4-(3-pyrrolidin-1-ylpropyl)-1H-pyrrole-3-carboxylic acid ethyl ester]
2 | 0.51 | 2.13 | – | – | CCOC(=O)c1c(C)[nH]c(/C=C2\C(=O)Nc3ccc(OC)cc32)c1CCCN1CCN(C)CC1 [Example 122, 5-(5-Methoxy-2-oxo-1,2-dihydroindol-3-ylidenemethyl)-2-methyl-4-[3-(4-methylpiperazin-1-yl)-propyl]-1h-pyrrole-3-carboxylic acid ethyl ester]
3 | 8.18 | 2.69 | – | – | CCOC(=O)c1c(C)[nH]c(/C=C2\C(=O)Nc3ccc(S(N)(=O)=O)cc32)c1CCCN(C)C [Example 133, 4-(3-Dimethylaminopropyl)-2-methyl-5-(2-oxo-5-sulfamoyl-1,2-dihydroindol-3-ylidenemethyl)-1H-pyrrole-3-carboxylic acid ethyl ester]
4 | – | – | > 100 | > 100 | Cc1c(C=C2C(=O)Nc3ccc(S(=O)(=O)N(C)C)cc32)[nH]c2ccccc12 (racemic) [Example 155, 3-(3-Methyl-1H-indol-2-ylmethylene)-2-oxo-2,3-dihydro-1H-indole-5-sulfonic acid dimethylamide]
